Biological target: His-tagged N-terminal ATP binding domain (amino acid residues 9-236) of HSP90α (Homo sapiens, UniProt P07900)
Experiment: HSP90 inhibitor binding potency: TRF competition binding assay
Conditions: Table I; read-out: Hsp90 IC50 Range
Procedure, shortened: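 Competition against biotinylated radicicol for binding to the His-tagged 9-236 ATP domain of HSP90α: 2 h, room temperature, HEPES/MgCl2/KCl/BSA buffer. Streptavidin capture, then europium-labeled anti-His antibody and enhancement solution; europium counts give IC50.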

IC50, 1 to 10 µM:
COc1ccc(C2CC(=O)c3c(C)nc(N)nc3C2)cc1 (stereo not shown) [Compound 2, 2-amino-7-(4-methoxyphenyl)-4-methyl-7,8-dihydroquinazolin-5(6H)-one]
Cc1nc(N)nc2c1C(=O)CC(c1cccc3ccccc13)C2 (stereo not shown) [Compound 159, 2-amino-4-methyl-7-(1-naphthyl)-7,8-dihydroquinazolin-5(6H)-one]

IC50, < 1 µM:
Cc1nc(N)nc2c1C(=O)CC(c1ccccc1C1=CCCC1)C2 (stereo not shown) [Compound 40, 2-amino-7-(2-cyclopent-1-en-1-ylphenyl)-4-methyl-7,8-dihydroquinazolin-5(6H)-one]
Cc1ccc(F)c(-c2ccccc2C2CC(=O)c3c(C)nc(N)nc3C2)c1 (stereo not shown) [Compound 76, 2-amino-7-(2′-fluoro-5′-methyl-1,1′-biphenyl-2-yl)-4-methyl-7,8-dihydroquinazolin-5(6H)-one]
COc1ncccc1-c1ccccc1C1CC(=O)c2c(C)nc(N)nc2C1 (stereo not shown) [Compound 70, 2-amino-7-[2-(2-methoxypyridin-3-yl)phenyl]-4-methyl-7,8-dihydroquinazolin-5(6H)-one]
Cc1nc(N)nc2c1C(=O)CC(c1ccccc1-c1ccccc1C(N)=O)C2 (stereo not shown) [Compound 90, 2′-(2-amino-4-methyl-5-oxo-5,6,7,8-tetrahydroquinazolin-7-yl)-1,1′-biphenyl-2-carboxamide]
COc1cccc(-c2ccccc2C2CC(=O)c3c(C)nc(N)nc3C2)n1 (stereo not shown) [Compound 124, 2-amino-7-[2-(6-methoxypyridin-2-yl)phenyl]-4-methyl-7,8-dihydroquinazolin-5(6H)-one]
Cc1nc(N)nc2c1C(=O)CC(c1c(O)cccc1C1=CCCCC1)C2 (stereo not shown) [Compound 62, 2-amino-7-(2-cyclohex-1-enyl-6-hydroxy-phenyl)-4-methyl-7,8-dihydro-6H-quinazolin-5-one]
Cc1ccc(-c2ccccc2C2CC(=O)c3c(C)nc(N)nc3C2)c(F)c1 (stereo not shown) [Compound 77, 2-amino-7-(2′-fluoro-4′-methyl-1,1′-biphenyl-2-yl)-4-methyl-7,8-dihydroquinazolin-5(6H)-one]
Cc1nc(N)nc2c1C(=O)CC(c1ccc(F)cc1-c1cccnc1F)C2 (stereo not shown) [Compound 87, 2-amino-7-[4-fluoro-2-(2-fluoropyridin-3-yl)phenyl]-4-methyl-7,8-dihydroquinazolin-5(6H)-one]
Cc1nc(N)nc2c1C(=O)CC(c1cnccc1Oc1ccccc1)C2 (stereo not shown) [Compound 24, 2-Amino-4-methyl-7-(4-phenoxy-pyridin-3-yl)-7,8-dihydro-6H-quinazolin-5-one]
COc1ncccc1-c1cc(F)ccc1C1CC(=O)c2c(C)nc(N)nc2C1 (stereo not shown) [Compound 99, 2-amino-7-[4-fluoro-2-(2-methoxy-pyridin-3-yl)-phenyl]-4-methyl-7,8-dihydro-6H-quinazolin-5-one]
Cc1nc(N)nc2c1C(=O)CC(c1ccccc1-c1cncnc1)C2 (stereo not shown) [Compound 42, 2-amino-4-methyl-7-(2-pyrimidin-5-ylphenyl)-7,8-dihydroquinazolin-5(6H)-one]
COc1cccc(-c2cn(C)nc2C2CC(=O)c3c(C)nc(N)nc3C2)n1 (stereo not shown) [Compound 127, 2-amino-7-[4-(6-methoxy-pyridin-2-yl)-1-methyl-1H-pyrazol-3-yl]-4-methyl-7,8-dihydro-6H-quinazolin-5-one]
Cc1nc(N)nc2c1C(=O)CC(c1c(OCCN3CCCCC3)cccc1-c1cccnc1F)C2 (stereo not shown) [Compound 155, 2-amino-7-[2-(2-fluoro-pyridin-3-yl)-6-(2-piperidin-1-yl-ethoxy)-phenyl]-4-methyl-7,8-dihydro-6H-quinazolin-5-one]
Cc1nc(N)nc2c1C(=O)CC(c1ccccc1-c1ccccc1C(F)(F)F)C2 (stereo not shown) [Compound 109, 2-amino-4-methyl-7-[2′-(trifluoromethyl)-1,1′-biphenyl-2-yl]-7,8-dihydroquinazolin-5(6H)-one]
Cc1nc(N)nc2c1C(=O)CC(c1ccccc1-c1ccc(F)nc1)C2 (stereo not shown) [Compound 56, 2-amino-7-[2-(6-fluoropyridin-3-yl)phenyl]-4-methyl-7,8-dihydroquinazolin-5(6H)-one]
Cc1cccc(-c2ccccc2C2CC(=O)c3c(C)nc(N)nc3C2)c1F (stereo not shown) [Compound 126, 2-amino-7-(2′-fluoro-3′-methyl-1,1′-biphenyl-2-yl)-4-methyl-7,8-dihydroquinazolin-5(6H)-one]
COc1cccc(-c2cc(F)ccc2C2CC(=O)c3c(C)nc(N)nc3C2)n1 (stereo not shown) [Compound 130, 2-amino-7-[4-fluoro-2-(6-methoxy-pyridin-2-yl)-phenyl]-4-methyl-7,8-dihydro-6H-quinazolin-5-one]

IC50, > 10 µM:
Cc1nc(N)nc2c1C(=O)CC(c1nn(C)cc1Br)C2 (stereo not shown) [Compound 11, 2-amino-7-(4-bromo-1-methyl-1H-pyrazol-3-yl)-4-methyl-7,8-dihydro-6H-quinazolin-5-one]
Cc1ccncc1-c1ccccc1C1CC(=O)c2c(C)nc(N)nc2C1 (stereo not shown) [Compound 121, 2-amino-4-methyl-7-[2-(4-methylpyridin-3-yl)phenyl]-7,8-dihydroquinazolin-5(6H)-one]
Cc1nc(N)nc2c1C(=O)CC(c1ccccc1CCc1ccccc1)C2 (stereo not shown) [Compound 162, 2-amino-4-methyl-7-[2-(2-phenylethyl)phenyl]-7,8-dihydroquinazolin-5(6H)-one]
Cc1nc(N)nc2c1C(=O)CC(c1c(Cl)cccc1OCCN1CCN(C)CC1)C2 (stereo not shown) [Compound 154, 2-amino-7-{2-chloro-6-[2-(4-methyl-piperazin-1-yl)-ethoxy]-phenyl}-4-methyl-7,8-dihydro-6H-quinazolin-5-one]

Same assay, conditions: Table II; read-out: Hsp90 IC50 Range

IC50, < 1 µM:
Cc1nc(N)nc2c1C(=O)CC(c1ccc(F)cc1OC1CCCC1C)C2 (stereo not shown) [Compound 268, 2-amino-7-[4-fluoro-2-(2-methyl-cyclopentyloxy)-phenyl]-4-methyl-7,8-dihydro-6H-quinazolin-5-one]
Cc1nc(N)nc2c1C(=O)CC(c1ccccc1SC(C)(C)C)C2 (stereo not shown) [Compound 180, 2-amino-7-(2-tert-butylsulfanyl-phenyl)-4-methyl-7,8-dihydro-6H-quinazolin-5-one]
Cc1nc(N)nc2c1C(=O)CC(c1ccc(F)cc1-c1nccnc1F)C2 (stereo not shown) [Compound 231, 2-amino-7-[4-fluoro-2-(3-fluoro-pyrazin-2-yl)-phenyl]-4-methyl-7,8-dihydro-6H-quinazolin-5-one]
COc1ccccc1-c1scnc1C1CC(=O)c2c(C)nc(N)nc2C1 (stereo not shown) [Compound 301, 2-amino-7-[5-(2-methoxy-phenyl)-thiazol-4-yl]-4-methyl-7,8-dihydro-6H-quinazolin-5-one]
CCc1nc(N)nc2c1C(=O)CC(c1ccc(F)cc1-c1cnc(OC)c(OC)n1)C2 (stereo not shown) [Compound 324, 2-amino-7-[2-(5,6-dimethoxy-pyrazin-2-yl)-4-fluoro-phenyl]-4-ethyl-7,8-dihydro-6H-quinazolin-5-one]
Cc1nc(N)nc2c1C(=O)CC(c1ccc(F)cc1OC(C)C)C2 (stereo not shown) [Compound 176, 2-amino-7-(4-fluoro-2-isopropoxy-phenyl)-4-methyl-7,8-dihydro-6H-quinazolin-5-one]
COc1nc(-c2cc(F)ccc2C2CC(=O)c3c(C)nc(N)nc3C2)cnc1Cl (stereo not shown) [Compound 334, 2-amino-7-[2-(5-chloro-6-methoxy-pyrazin-2-yl)-4-fluoro-phenyl]-4-methyl-7,8-dihydro-6H-quinazolin-5-one]
CCOc1cncc(-c2cc(F)ccc2[C@@H]2CC(=O)c3c(C)nc(N)nc3C2)n1 [Compound 336, (S)-2-amino-7-[2-(6-ethoxy-pyrazin-2-yl)-4-fluoro-phenyl]-4-methyl-7,8-dihydro-6H-quinazolin-5-one]
Cc1nc(N)nc2c1C(=O)CC(c1ccc(F)cc1-c1cccc3ccccc13)C2 (stereo not shown) [Compound 212, 2-amino-7-(4-fluoro-2-naphthalen-1-yl-phenyl)-4-methyl-7,8-dihydro-6H-quinazolin-5-one]

IC50, 1 to 10 µM:
Cc1nc(N)nc2c1C(=O)CC(c1ccccc1S(=O)(=O)N1CCCC1)C2 (stereo not shown) [Compound 184, 2-amino-4-methyl-7-[2-(pyrrolidine-1-sulfonyl)-phenyl]-7,8-dihydro-6H-quinazolin-5-one]
COc1ccc(Br)c(C2CC(=O)c3c(C)nc(N)nc3C2)c1 (stereo not shown) [Compound 239, 2-amino-7-(2-bromo-5-methoxy-phenyl)-4-methyl-7,8-dihydro-6H-quinazolin-5-one]
COc1ccc(Cc2nc(N)nc3c2C(=O)CC(c2ccccc2)C3)cc1 (stereo not shown) [Compound 304, 2-amino-4-(4-methoxy-benzyl)-7-phenyl-7,8-dihydro-6H-quinazolin-5-one]
Cc1ccc(-n2ccnc2C2CC(=O)c3c(C)nc(N)nc3C2)c(F)c1 (stereo not shown) [Compound 329, 2-amino-7-[1-(2-fluoro-4-methyl-phenyl)-1H-imidazol-2-yl]-4-methyl-7,8-dihydro-6H-quinazolin-5-one]
Cc1nc(N)nc2c1C(=O)CC(c1ccccc1)C2C (stereo not shown) [Compound 247, 2-amino-4,8-dimethyl-7-phenyl-7,8-dihydro-6H-quinazolin-5-one]
Cc1nc(N)nc2c1C(=O)C[C@H](c1ccc(F)cc1-c1cccc(F)n1)C2 [Compound 213, (R)-2-amino-7-[4-fluoro-2-(6-fluoro-pyridin-2-yl)-phenyl]-4-methyl-7,8-dihydro-6H-quinazolin-5-one]

IC50, > 10 µM:
CCc1nc(N)nc2c1C(=O)CC(c1ccc(F)cc1-c1cccc(OC)c1F)C2 (stereo not shown) [Compound 320, 2-amino-7-(5,2′-difluoro-3′-methoxy-biphenyl-2-yl)-4-ethyl-7,8-dihydro-6H-quinazolin-5-one]
Nc1cccc(Cc2nc(N)nc3c2C(=O)CC(c2ccccc2)C3)c1 (stereo not shown) [Compound 309, 2-amino-4-(3-amino-benzyl)-7-phenyl-7,8-dihydro-6H-quinazolin-5-one]

— patent US20070027150A1 (priority 2005, published 2007)
